Experimental data as given in patent US12029739B2, “SHP2 inhibitor and use thereof” (KANAPH THERAPEUTICS INC., priority 2021, dated 2024).
Like-named read-outs stand apart in the source and are kept apart here.

Experiments:
[1] = test system: phospho-ERK in MIA PaCa2 or H358 cells; test: Phospho-ERK assay (AlphaLisa); type: cell-based
[2] = target: T1, SHP2 (full length) (Homo sapiens, UniProt Q06124); test: Phosphatase assay (PTPase assay) with DiFMUP substrate; type: biochemical; settings: SHP2 activated with SHP2 activating peptide, DiFMUP 80 μM, 2 hours, fluorescence
T1 construct: SHP2 (full length, diluted to 100 pM final concentration in reaction buffer, BPS bioscience, US); purchased BPS bioscience, US
T1 sequence (Q06124 1-593): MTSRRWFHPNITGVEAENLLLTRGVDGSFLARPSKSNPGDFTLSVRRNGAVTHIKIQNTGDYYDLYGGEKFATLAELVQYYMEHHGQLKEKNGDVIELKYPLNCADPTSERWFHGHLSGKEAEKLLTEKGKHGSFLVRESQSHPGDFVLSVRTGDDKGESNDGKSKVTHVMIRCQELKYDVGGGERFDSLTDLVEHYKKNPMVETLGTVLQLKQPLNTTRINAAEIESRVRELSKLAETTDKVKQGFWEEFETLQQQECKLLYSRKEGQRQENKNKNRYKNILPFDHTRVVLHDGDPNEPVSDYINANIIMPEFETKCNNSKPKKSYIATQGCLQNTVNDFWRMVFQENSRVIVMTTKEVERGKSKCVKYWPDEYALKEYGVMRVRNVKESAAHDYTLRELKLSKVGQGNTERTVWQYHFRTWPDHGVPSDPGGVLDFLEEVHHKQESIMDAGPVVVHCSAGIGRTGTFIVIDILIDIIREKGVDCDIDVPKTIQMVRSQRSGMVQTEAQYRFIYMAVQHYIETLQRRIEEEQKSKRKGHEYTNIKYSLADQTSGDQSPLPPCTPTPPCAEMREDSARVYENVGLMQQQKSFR

[3] = 1.5 h, MIA PaCa2 or H358 cells, compound incubated 1.5 hours, read-out: IC50 (p-ERK)
[4] = MIA PaCa2 or H358 cells, compound incubated 1.5 hours, read-out: IC50 (p-ERK)

Row | Compound | IC50 [1, 3] | IC50 ([2]; read-out: IC50 (PTPase aS say)) | IC50 [1, 4] | IC50 ([1]; 1.5 h, read-out: IC50 (p-ERK, nM)) | IC50 ([2]; IC50 (PTPase aS say, nM))
1 | C[C@@H]1OCC2(CCN(c3cnc(Sc4ccc5ncn(CCN(C)S(C)(=O)=O)c(=O)c5c4Cl)cn3)CC2)[C@@H]1N [Example 123, N-(2-(6-((5-((3S,4S)-4-amino-3-methyl-2-oxa-8-azaspiro[4,5]decan-8-yl)pyrazin-2-yl)thio)-5-chloro-4-oxoquinazolin-3(4H)-yl]ethyl)-N-methylmethanesulfonamide] | < 45 nM | < 3 nM |  |  | 
2 | C[C@@H]1OCC2(CCN(c3cnc(Sc4ccc5ncn(Cc6cccc(C#N)c6)c(=O)c5c4Cl)cn3)CC2)[C@@H]1N [Example 31, 3-((6-((5-((3S,4S)-4-amino-3-methyl-2-oxa-8-azaspiro[4.5]decan-8-yl)pyrazin-2-yl)thio)-5-chloro-4-oxoquinazolin-3(4H)-yl)methyl)benzonitrile] | < 45 nM | < 3 nM |  |  | 
3 | C[C@@H]1OCC2(CCN(c3cnc(Sc4ccc5ncn(CC(C)(C)F)c(=O)c5c4Cl)cn3)CC2)[C@@H]1N [Example 139, 6-((5-((3S,4S)-4-amino-3-methyl-2-oxa-8-azaspiro[4.5]decan-8-yl)pyrazin-2-yl)thio)-5-chloro-3-(2-fluoro-2-methylpropyl)quinazolin-4(3H)-one] | 45 to 1500 nM | 3 to 100 nM |  |  | 
4 | C[C@@H]1OCC2(CCN(c3cnc(Sc4ccc5ncn(CCCN(C)C)c(=O)c5c4Cl)cn3)CC2)[C@@H]1N [Example 68, 6-((5-((3S,4S)-4-amino-3-methyl-2-oxa-8-azaspiro[4.5]decan-8-yl)pyrazin-2-yl)thio)-5-chloro-3-(3-(dimethylamino)propyl)quinazolin-4(3H)-one] | 45 to 1500 nM | 3 to 100 nM |  |  | 
5 | C[C@@H]1OCC2(CCN(c3cnc(Sc4ccc5nc(Cc6cnccn6)[nH]c5c4Cl)cn3)CC2)[C@@H]1N [Example 136, (3S,4S)-8-(5-((7-chloro-2-(pyrazin-2-ylmethyl)-1H-benzo[d]imidazol-6-yl)thio)pyrazin-2-yl)-3-methyl-2-oxa-8-azaspiro[4.5]decan-4-amine] | < 45 nM | < 3 nM |  |  | 
6 | C[C@@H]1OCC2(CCN(c3cnc(Sc4ccc5ncn(Cc6ccncn6)c(=O)c5c4Cl)cn3)CC2)[C@@H]1N [Example 45, 6-((5-((3S,4S)-4-amino-3-methyl-2-oxa-8-azaspiro[4.5]decan-8-yl)pyrazin-2-yl)thio)-5-chloro-3-(pyrimidin-4-ylmethyl)quinazolin-4(3H)-one] | < 45 nM | < 3 nM |  |  | 
7 | CC(C)(O)Cn1cnc2ccc(Sc3cnc(N4CCC5(CC4)Cc4scnc4[C@@H]5N)cn3)c(Cl)c2c1=O [Example 152, 6-[5-[(4R)-4-aminospiro[4,6-dihydrocyclopenta[d]thiazole-5,4′-piperidin]-1′-yl]pyrazin-2-yl]sulfanyl-5-chloro-3-(2-hydroxy-2-methyl-propyl)quinazolin-4-one] | 45 to 1500 nM | 3 to 100 nM |  |  | 
8 | COCCn1cnc2ccc(Sc3cnc(N4CCC5(CC4)Cc4ncsc4C5N)cn3)c(Cl)c2c1=O (stereo in doubt) [Example 145, 6-[5-[(6R)-6-aminospiro[4,6-dihydrocyclopenta[d]thiazole-5,4′-piperidin]-1′-yl]pyrazin-2-yl]sulfanyl-5-chloro-3-(2-methoxyethyl)quinazolin-4-one] |  | 3 to 100 nM | 45 to 1500 nM |  | 
9 | Cn1c(N2CCN(C[C@@H](N)c3ccccc3)CC2)nc(N)c(Sc2cccc(Cl)c2Cl)c1=O [Example 191, (S)-6-amino-2-(4-(2-amino-2-phenylethyl)piperazin-1-yl)-5-((2,3-dichlorophenyl)thio)-3-methylpyrimidin-4(3H)-one] | > 1500 nM | > 100 nM |  |  | 
10 | C[C@@H]1OCC2(CCN(c3cnc(Sc4ccc5ncn(CCS(C)(=O)=O)c(=O)c5c4Cl)cn3)CC2)[C@@H]1N [Example 82, 6-((5-((3S,4S)-4-amino-3-methyl-2-oxa-8-azaspiro[4.5]decan-8-yl)pyrazin-2-yl)thio)-5-chloro-3-(2-(methylsulfonyl)ethyl)quinazolin-4(3H)-one] | < 45 nM | < 3 nM |  |  | 
11 | COCCn1cnc2ccc(Sc3cnc(N4CCC5(CC4)Cc4ncsc4[C@H]5N)c(CO)n3)c(Cl)c2c1=O [Example 169, (S)-6-((5-(6-amino-4,6-dihydrospiro[yclopenta[d]thiazole-5,4′-piperidin]-1′-yl)-6-(hydroxymethyl)pyrazin-2-yl)thio)-5-chloro-3-(2-methoxyethyl)quinazolin-4(3H)-one] | < 45 nM | < 3 nM |  |  | 
12 | C[C@@H]1OCC2(CCN(c3cnc(Sc4ccc5nc(Oc6ccccc6)[nH]c5c4Cl)cn3)CC2)[C@@H]1N [Example 125] |  | < 3 nM | < 45 nM |  | 
13 | CC(C)(O)Cn1cnc2ccc(Sc3cnc(N4CCC5(CC4)Cc4ncccc4[C@@H]5N)cn3)c(Cl)c2c1=O [Example 159, 6-[5-[(5R)-5-aminospiro[5,7-dihydrocyclopenta[b]pyridine-6,4′-piperidin]-1′-yl]pyrazin-2-yl]sulfanyl-5-chloro-3-(2-hydroxy-2-methylpropyl)quinazolin-4-one] | < 45 nM | < 3 nM |  |  | 
14 | COc1cccc(Cn2cnc3ccc(Sc4cnc(N5CCC6(CC5)CO[C@@H](C)[C@H]6N)cn4)c(Cl)c3c2=O)c1 [Example 36, 6-((5-((3S,4S)-4-amino-3-methyl-2-oxa-8-azaspiro[4.5]decan-8-yl)pyrazin-2-yl)thio)-5-chloro-3-(3-methoxybenzyl)quinazolin-4(3H)-one] | < 45 nM | < 3 nM |  |  | 
15 | C[C@@H]1OCC2(CCN(c3cnc(Sc4cccc(S(=O)(=O)F)c4Cl)cn3)CC2)[C@@H]1N [Example 11, 3-((5-((3S,4S)-4-amino-3-methyl-2-oxa-8-azaspiro[4.5]decan-8-yl)pyrazin-2-yl)thio)-2-chlorobenzenesulfonyl fluoride] |  |  |  | < 45 nM | < 3 nM
16 | C[C@@H]1OCC2(CCN(c3cnc(Sc4ccc5ncn(CC(C)(C)O)c(=O)c5c4Cl)cn3)CC2)[C@@H]1N [Example 81, 6-((5-((3S,4S)-4-amino-3-methyl-2-oxa-8-azaspiro[4.5]decan-8-yl)pyrazin-2-yl)thio)-5-chloro-3-(2-hydroxy-2-methylpropyl)quinazolin-4(3H)-one] | < 45 nM | < 3 nM |  |  | 
17 | C[C@@H]1OCC2(CCN(c3cnc(Sc4ccc5ncn(Cc6ccn(C)n6)c(=O)c5c4Cl)cn3)CC2)[C@@H]1N [Example 53, 6-((5-((3S,4S)-4-amino-3-methyl-2-oxa-8-azaspiro[4.5]decan-8-yl)pyrazin-2-yl)thio)-5-chloro-3-((1-methyl-1H-pyrazol-3-yl)methyl)quinazolin-4(3H)-one] | < 45 nM | 3 to 100 nM |  |  | 
18 | COCCn1cnc2ccc(Sc3cnc(N4CCC5(CC4)CO[C@@H](C)[C@H]5N)cn3)c(F)c2c1=O [Example 156] | < 45 nM | 3 to 100 nM |  |  | 
19 | C[C@@H]1OCC2(CCN(c3cnc(Sc4ccc5ncn(Cc6cccc(O)c6)c(=O)c5c4Cl)cn3)CC2)[C@@H]1N [Example 66, 6-((5-((3S,4S)-4-amino-3-methyl-2-oxa-8-azaspiro[4.5]decan-8-yl)pyrazin-2-yl)thio)-5-chloro-3-(3-hydroxybenzyl)quinazolin-4(3H)-one] | < 45 nM | < 3 nM |  |  | 
20 | N[C@@H]1c2scnc2CC12CCN(c1cnc(Sc3ccc4ncn(CC5CCOCC5)c(=O)c4c3Cl)cn1)CC2 [Example 149] | < 45 nM | < 3 nM |  |  | 
21 | C[C@@H]1OCC2(CCN(c3cnc(Sc4ccc5ncn(Cc6cccnc6N)c(=O)c5c4Cl)cn3)CC2)[C@@H]1N [Example 52, 6-((5-((3S,4S)-4-amino-3-methyl-2-oxa-8-azaspiro[4.5]decan-8-yl)pyrazin-2-yl)thio)-3-((2-aminopyridin-3-yl)methyl)-5-chloroquinazolin-4(3H)-one] | 45 to 1500 nM | 3 to 100 nM |  |  | 
22 | Cn1c(N2CCN(CC(N)CCc3ccccc3)CC2)nc(N)c(Sc2cccc(Cl)c2Cl)c1=O (stereo not shown) [Example 189, 6-amino-2-(4-(2-amino-4-phenylbutyl)piperazin-1-yl)-5-((2,3-dichlorophenyl)thio)-3-methylpyrimidin-4(3H)-one] | > 1500 nM | > 100 nM |  |  | 
23 | C[C@@H]1OCC2(CCN(c3cnc(Sc4ccc5ncn(CCN6CCCC6)c(=O)c5c4Cl)cn3)CC2)[C@@H]1N [Example 89] | 45 to 1500 nM | 3 to 100 nM |  |  | 
24 | COC(C)Cn1cnc2ccc(Sc3cnc(N4CCC5(CC4)CO[C@@H](C)[C@H]5N)cn3)c(Cl)c2c1=O (stereo partly shown) [Example 120] | < 45 nM | < 3 nM |  |  | 
25 | CNS(=O)(=O)c1cccc(Sc2cnc(N3CCC(C)(N)CC3)cn2)c1Cl [Example 8, 3-((5-(4-amino-4-methylpiperidin-1-yl)pyrazin-2-yl)thio)-2-chloro-N-methylbenzenesulfonamide] | > 1500 nM | 3 to 100 nM |  |  | 
26 | Cn1c(N2CCC(C)(N)CC2)nc(N)c(Sc2cccc(C(=O)O)c2Cl)c1=O [Example 27, 3-((4-amino-2-(4-amino-4-methylpiperidin-1-yl)-1-methyl-6-oxo-1,6-dihydropyrimidin-5-yl)thio)-2-chlorobenzoic acid] | > 1500 nM | > 100 nM |  |  | 
